Read-outs that look alike come from different tables or passages of the source.
Target: Factor IXa (Homo sapiens (Human), UniProt P00740)
Assay: Determination of inhibitory activity against Factor IXa (cleavage of fluorescent peptide CH3SO2-D-CHG-Gly-Arg-AFC)
Format: biochemical
Method: Determination of Inhibitory Activity Against Factor IXa
Formation of a clot to stem bleeding at a site of blood vessel injury involves the coordinated activity of a group of plasma proteins that initiate and propagate fibrin formation and subsequently protect fibrin from premature degradation. Factor IX is a key component of the plasma system that forms a fibrin clot at a site of vascular injury. The activity of Factor IXa is measured by monitoring the cleavage of the fluorescent peptide, CH3SO2-D-CHG-Gly-Arg-AFC.AcOH (“CHG” is cyclohexyl-glycine and “AFC” is trifluoro aminomethyl coumarin). Factor IXa cleaves the amide bond between Arg and AFC, thereby releasing the AFC fluorophore. The free AFC can be detected with a fluorescence detector at an excitation wavelength of 405 nm and emission wavelength of 510 nm.

Factor IXa, sequence (P00740 227-461): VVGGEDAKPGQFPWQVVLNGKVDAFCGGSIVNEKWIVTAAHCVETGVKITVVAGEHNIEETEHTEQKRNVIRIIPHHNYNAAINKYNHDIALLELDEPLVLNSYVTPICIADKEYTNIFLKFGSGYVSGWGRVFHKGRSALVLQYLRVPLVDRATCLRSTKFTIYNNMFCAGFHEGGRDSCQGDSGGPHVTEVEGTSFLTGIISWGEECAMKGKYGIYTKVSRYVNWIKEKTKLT
Factor IXa, sequence (P00740 47-191 partner): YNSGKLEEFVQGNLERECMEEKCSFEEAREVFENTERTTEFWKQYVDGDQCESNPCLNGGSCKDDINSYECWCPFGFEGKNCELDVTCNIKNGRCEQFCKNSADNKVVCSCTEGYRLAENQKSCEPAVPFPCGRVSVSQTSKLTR

Compound | IC50 (read-out: FIXa IC50) | IC50 (read-out: hFIXa IC50)
Cc1ncn(-c2cc(Cl)c(C(=O)NCC(c3ccc(=O)[nH]c3)c3nc4ccc(Cl)cc4[nH]3)c(Cl)c2)n1 (racemic) [Example 39, 2,6-Dichloro-N-(2-(6-chloro-1H-benzo[d]imidazol-2-yl)-2-(6-oxo-1,6-dihydropyridin-3-yl)ethyl)-4-(3-methyl-1H-1,2,4-triazol-1-yl)benzamide 2,2,2-trifluoroacetate] | 2.4 nM | 
COc1ccc(C(CNC(=O)c2c(Cl)cc(-n3cnc(C)n3)cc2Cl)c2nc3ccc(Cl)cc3[nH]2)cn1 (racemic) [Example 40, (±)-2,6-Dichloro-N-(2-(6-chloro-1H-benzo[d]imidazol-2-yl)-2-(6-methoxypyridin-3-yl)ethyl)-4-(3-methyl-1H-1,2,4-triazol-1-yl)benzamide] | 32.7 nM | 
COc1cc2nc(C(CNC(=O)c3c(Cl)cc(-n4cnc(C)n4)cc3Cl)n3cc(CO)nn3)[nH]c2cc1Cl (racemic) [Example 71, (±)-2,6-Dichloro-N-(2-(6-chloro-5-methoxy-1H-benzo[d]imidazol-2-yl)-2-(4-(hydroxymethyl)-1H-1,2,3-triazol-1-yl)ethyl)-4-(3-methyl-1H-1,2,4-triazol-1-yl)benzamide] | 20.5 nM | 
Cc1cc2nc(C(C)(CNC(=O)c3ccc(-n4cnnc4)cc3Cl)c3ccccc3)[nH]c2cc1C (single isomer, unassigned) [Example 69] | 55.2 nM | 
Cc1cc2nc(C(CNC(=O)c3ccc(-n4cc(CCO)nn4)cc3Cl)c3ccccc3)[nH]c2cc1C (stereo not shown) [Example 3] |  | 21.9 nM
Cc1ncn(-c2cc(Cl)c(C(=O)NCC(c3ccccc3)c3nc4cc(C)c(C)cc4[nH]3)c(C(F)(F)F)c2)n1 (stereo not shown) [Example 4] |  | 63.1 nM
Cc1cc2nc(C(CNC(=O)c3c(Cl)cc(-n4cnnc4)cc3C(F)(F)F)c3ccccc3)[nH]c2cc1C (stereo not shown) [Example 5] |  | 21.8 nM
Cc1ncn(-c2cc(C)c(C(=O)NCC(c3ccccc3)c3nc4cc(C)c(C)cc4[nH]3)c(Cl)c2)n1 (stereo not shown) [Example 8] |  | 6.99 nM
COc1cc(-n2cnnc2)cc(Cl)c1C(=O)NCC(c1ccccc1)c1nc2cc(C)c(C)cc2[nH]1 (stereo not shown) [Example 9] |  | 14.8 nM
Cc1cc2nc(C(CNC(=O)c3c(F)cc(-n4cnnc4)cc3Cl)c3ccccc3)[nH]c2cc1C (stereo not shown) [Example 10] |  | 15.2 nM
Cc1cc2nc(C(CNC(=O)c3c(C)cc(-n4cnnc4)cc3Cl)c3ccccc3)[nH]c2cc1C (stereo not shown) [Example 11] |  | 8.05 nM
Cc1cc2nc([C@@H](CNC(=O)c3ccc(-n4cnnn4)cc3Cl)c3ccccc3)[nH]c2cc1C [Example 12] |  | 78.3 nM
COc1ncn(-c2ccc(C(=O)NCC(c3cccc(F)c3)c3nc4ccc(Cl)cc4[nH]3)c(Cl)c2)n1 (stereo not shown) [Example 13] |  | 65.8 nM
Cc1cc2nc(C(CNC(=O)c3c(Cl)cc(-n4cnnc4)cc3OC(F)(F)F)c3ccccc3)[nH]c2cc1C (stereo not shown) [Example 14] |  | 40 nM
Cc1cc(Cl)cc2[nH]c(C(CNC(=O)c3ccc(-n4cnnc4C)cc3Cl)c3cccc(F)c3)nc12 (stereo not shown) [Example 15] |  | 4.9 nM
CCOC(=O)c1cc(-c2ccc(C(=O)NCC(c3ccccc3)c3nc4cc(C)c(C)cc4[nH]3)c(Cl)c2)ccn1 (stereo not shown) [Example 30] |  | 247 nM
Cc1cc2nc([C@@H](CNC(=O)c3ccc(-n4cnnc4)cc3Cl)c3ccccc3)[nH]c2cc1C [Example 37, (R)-2-Chloro-N-(2-(5,6-dimethyl-1H-benzo[d]imidazol-2-yl)-2-phenylethyl)-4-(4H-1,2,4-triazol-4-yl)benzamide] | 15.7 nM | 
Cc1cc2nc([C@@H](CNC(=O)c3c(Cl)cc(-n4cnnc4)cc3Cl)c3cncc(F)c3)[nH]c2cc1C [Example 38, (R)-2,6-Dichloro-N-(2-(5,6-dimethyl-1H-benzo[d]imidazol-2-yl)-2-(5-fluoropyridin-3-yl)ethyl)-4-(4H-1,2,4-triazol-4-yl)benzamide] | 14.8 nM | 
Cc1ncn(-c2cc(Cl)c(C(=O)NC[C@@H](c3ccc(C(=O)O)cc3)c3nc4c(C)cc(Cl)cc4[nH]3)c(Cl)c2)n1 [Example 41, (R)-4-(1-(6-Chloro-4-methyl-1H-benzo[d]imidazol-2-yl)-2-(2,6-dichloro-4-(3-methyl-1H-1,2,4-triazol-1-yl)benzamido)ethyl)benzoic acid] | 18.6 nM | 
CCOC(=O)c1ccc([C@H](CNC(=O)c2c(Cl)cc(-n3cnc(C)n3)cc2Cl)c2nc3c(C)cc(Cl)cc3[nH]2)cc1 [Example 42, (R)-Ethyl 4-(1-(6-chloro-4-methyl-1H-benzo[d]imidazol-2-yl)-2-(2,6-dichloro-4-(3-methyl-1H-1,2,4-triazol-1-yl)benzamido)ethyl)benzoate] | 39.1 nM | 
O=C(NC[C@@H](c1ccc(F)cc1)c1nc2ccc(Cl)cc2o1)c1c(Cl)cc(-n2cnnc2)cc1Cl [Example 43, (R)-2,6-Dichloro-N-(2-(6-chlorobenzo[d]oxazol-2-yl)-2-(4-fluorophenyl)ethyl)-4-(4H-1,2,4-triazol-4-yl)benzamide] | 96.2 nM | 
Cc1ccc2nc(C(CNC(=O)c3ccc(-n4cnnc4)cc3Cl)c3ccccc3)[nH]c2c1 (stereo not shown) [Example 44] |  | 53.5 nM
Cc1cccc2[nH]c(C(CNC(=O)c3ccc(-n4cnnc4)cc3Cl)c3ccccc3)nc12 (stereo not shown) [Example 45] |  | 622 nM
Cc1ncn(-c2cc(Cl)c(C(=O)NC[C@@H](c3cccc(F)c3)c3nc4ccc(Cl)cc4[nH]3)c(Cl)c2)n1 [Example 46] |  | 9.78 nM
Cc1ncn(-c2cc(Cl)c(C(=O)NCC(c3cccc(F)c3)c3nc4c(C)cc(Cl)cc4[nH]3)c(Cl)c2)n1 (stereo not shown) [Example 47] |  | 6.18 nM
COc1cc2nc(C(CNC(=O)c3c(Cl)cc(-n4cnc(C)n4)cc3Cl)c3cccc(F)c3)[nH]c2cc1Cl (stereo not shown) [Example 48] |  | 2.86 nM
COc1ccc2nc(C(CNC(=O)c3c(Cl)cc(-n4cnc(C)n4)cc3Cl)c3cccc(F)c3)[nH]c2c1 (stereo not shown) [Example 49] |  | 49.1 nM
Cc1cc2nc(C(CNC(=O)c3ccc(-n4cnnc4)cc3Cl)c3cccc(F)c3)[nH]c2cc1C (stereo not shown) [Example 50] |  | 5.69 nM

Further lines, results first:

IC50 (read-out: FIXa IC50) | IC50 (read-out: hFIXa IC50) | Compound
10.4 nM |  | Cc1cc2nc(C(CNC(=O)c3c(Cl)cc(-n4cc(CCO)nn4)cc3Cl)c3ccccc3)[nH]c2cc1C (single isomer, unassigned) [Example 1]
26.4 nM |  | Cc1cc2nc([C@@H](CNC(=O)c3c(Cl)cc(-n4cnnn4)cc3Cl)c3ccccc3)[nH]c2cc1C [Example 2, (R)-2,6-dichloro-N-(2-(5,6-dimethyl-1H-benzo[d]imidazol-2-yl)-2-phenylethyl)-4-(1H-tetrazol-1-yl)benzamide]
 | 20.8 nM | Cc1ncn(-c2cc(Cl)c(C(=O)NCC(c3ccccc3)c3nc4cc(C)c(C)cc4[nH]3)c(Cl)c2)n1 (stereo not shown) [Example 6]
 | 3.64 nM | Cc1cc2nc(C(CNC(=O)c3c(Cl)cc(-n4cnnc4)cc3Cl)c3ccccc3)[nH]c2cc1C (stereo not shown) [Example 7]
73.6 nM |  | Cc1cc2nc(C(CNC(=O)c3c(Cl)cc(-c4ccnc(C(=O)O)c4)cc3Cl)c3ccccc3)[nH]c2cc1C (stereo not shown) [Example 16, 4-(3,5-Dichloro-4-((2-(5,6-dimethyl-1H-benzo[d]imidazol-2-yl)-2-phenylethyl)carbamoyl)phenyl)picolinic acid]
 | 18.1 nM | Cc1cc2nc(C(CNC(=O)c3c(Cl)cc(-c4cncnc4)cc3Cl)c3ccccc3)[nH]c2cc1C (stereo not shown) [Example 17]
 | 403 nM | Cc1cc2nc(C(CNC(=O)c3c(Cl)cc(-c4cnn(CS(C)(=O)=O)c4)cc3Cl)c3ccccc3)[nH]c2cc1C (stereo not shown) [Example 18]
 | 343 nM | CCOC(=O)c1cc(-c2cc(Cl)c(C(=O)NCC(c3ccccc3)c3nc4cc(C)c(C)cc4[nH]3)c(Cl)c2)ccn1 (stereo not shown) [Example 19]
 | 276 nM | Cc1cc2nc(C(CNC(=O)c3c(Cl)cc(-c4cnc5c(c4)CCC(=O)N5)cc3Cl)c3ccccc3)[nH]c2cc1C (stereo not shown) [Example 20]
 | 378 nM | Cc1cc2nc(C(CNC(=O)c3c(Cl)cc(-c4cnc(OCCF)nc4)cc3Cl)c3ccccc3)[nH]c2cc1C (stereo not shown) [Example 21]
 | 44.7 nM | Cc1cc2nc(C(CNC(=O)c3c(Cl)cc(-c4cncc(C(C)(C)O)c4)cc3Cl)c3ccccc3)[nH]c2cc1C (stereo not shown) [Example 22]
 | 544 nM | COC(=O)c1ccc(-c2cc(Cl)c(C(=O)NCC(c3ccccc3)c3nc4cc(C)c(C)cc4[nH]3)c(Cl)c2)cn1 (stereo not shown) [Example 23]
 | 141 nM | Cc1cc2nc(C(CNC(=O)c3c(Cl)cc(-c4cnc5c(c4)CNC5=O)cc3Cl)c3ccccc3)[nH]c2cc1C (stereo not shown) [Example 24]
 | 464 nM | Cc1cc2nc(C(CNC(=O)c3c(Cl)cc(-c4cnc5ccccc5c4)cc3Cl)c3ccccc3)[nH]c2cc1C (stereo not shown) [Example 25]
 | 312 nM | Cc1cc2nc(C(CNC(=O)c3c(Cl)cc(-c4ccc(C(=O)O)nc4)cc3Cl)c3ccccc3)[nH]c2cc1C (stereo not shown) [Example 26]
 | 21 nM | Cc1cc2nc(C(CNC(=O)c3c(Cl)cc(-c4ccc5nncn5c4)cc3Cl)c3ccccc3)[nH]c2cc1C (stereo not shown) [Example 27]
 | 64.8 nM | Cc1cc2nc(C(CNC(=O)c3c(Cl)cc(-c4ccn5ncnc5c4)cc3Cl)c3ccccc3)[nH]c2cc1C (stereo not shown) [Example 28]
 | 654 nM | Cc1cc2nc(C(CNC(=O)c3c(Cl)cc(-c4cnc(C5CC5)nc4)cc3Cl)c3ccccc3)[nH]c2cc1C (stereo not shown) [Example 29]
 | 65.3 nM | Cc1cc2nc(C(CNC(=O)c3c(Cl)cc(-c4cnn(CCO)c4)cc3Cl)c3ccccc3)[nH]c2cc1C (stereo not shown) [Example 31]
 | 503 nM | Cc1cc2nc(C(CNC(=O)c3c(Cl)cc(-c4cn[nH]c4)cc3Cl)c3ccccc3)[nH]c2cc1C (stereo not shown) [Example 32]
 | 538 nM | Cc1cc2nc(C(CNC(=O)c3ccc(-c4ccnc(C(=O)O)c4)cc3Cl)c3ccccc3)[nH]c2cc1C (stereo not shown) [Example 33]
 | 10.3 nM | Cc1cc2nc(C(CNC(=O)c3c(Cl)cc(-c4cncc(CO)c4)cc3Cl)c3ccccc3)[nH]c2cc1C (stereo not shown) [Example 34]
 | 42.7 nM | Cc1cc2nc(C(CNC(=O)c3c(Cl)cc(-c4ccc(CO)nc4)cc3Cl)c3ccccc3)[nH]c2cc1C (stereo not shown) [Example 35]
 | 52.5 nM | Cc1cc2nc(C(CNC(=O)c3c(Cl)cc(-c4ccnc(CO)c4)cc3Cl)c3ccccc3)[nH]c2cc1C (stereo not shown) [Example 36]
